Broadly, the viability, T/C is the result in the treated group divided by that in the control group, in per cent.
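Further: spheroids exposed to agents for seven days before readout; percent viability relative to DMSO vehicle control taken as 100%.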

The test system of the first assay is 233499-124-R-J3-PDC spheroids with HUVEC/MSC, viability. Nature of the assay: Anticancer human tumor 233499-124-R-J3-PDC patient-derived colon adenocarcinoma cell line growth inhibition [PI3K]. The settings on record: second compound 0.0316 µM; first compound 1 µM; active compounds read low. In a few lines: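 Spheroid viability read-out. Co-cultures contained the tumor line plus HUVEC and human MSCs. Each agent was paired with a PI3K inhibitor (inavolisib, alpelisib, duvelisib, copanlisib) across half-log dilutions starting at clinical Cmax, or at 10 microM when Cmax was unknown.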
In the case of `C=CC(=O)N1CCN(c2nc(=O)n(-c3c(C)ccnc3C(C)C)c3nc(-c4c(O)cccc4F)c(F)cc23)C(C)C1` (stereo unspecified) + COc1c(OCCCN2CCOCC2)ccc2c3n(c(=NC(=O)c4cnc(N)nc4)nc12)CCN3, the viability, T/C is 95.6%.
`CC(Cn1ccc(-c2ccc(C#N)c(Cl)c2)n1)NC(=O)c1cc(C(C)O)[nH]n1` (stereo unspecified) + COc1c(OCCCN2CCOCC2)ccc2c3n(c(=NC(=O)c4cnc(N)nc4)nc12)CCN3: the viability, T/C was 95.3%.
On the same count and under the same terms, the result for `Cn1nccc1Nc1nccc(-c2ccn(C(CO)c3ccc(Cl)c(F)c3)c(=O)c2)n1` (stereo unspecified) + COc1c(OCCCN2CCOCC2)ccc2c3n(c(=NC(=O)c4cnc(N)nc4)nc12)CCN3 reads 65.9%.

Still in this assay, the particulars now being: second compound 0.0316 µM; first compound 3.16 µM; active compounds read low.
`C=CC(=O)N1CCN(c2nc(=O)n(-c3c(C)ccnc3C(C)C)c3nc(-c4c(O)cccc4F)c(F)cc23)C(C)C1` (stereo unspecified) + COc1c(OCCCN2CCOCC2)ccc2c3n(c(=NC(=O)c4cnc(N)nc4)nc12)CCN3: the viability, T/C is 103%.
As to `CC(Cn1ccc(-c2ccc(C#N)c(Cl)c2)n1)NC(=O)c1cc(C(C)O)[nH]n1` (stereo unspecified) + COc1c(OCCCN2CCOCC2)ccc2c3n(c(=NC(=O)c4cnc(N)nc4)nc12)CCN3, the viability, T/C was 77.1%.
Same read-out and setting: the result for `Cn1nccc1Nc1nccc(-c2ccn(C(CO)c3ccc(Cl)c(F)c3)c(=O)c2)n1` (stereo unspecified) + COc1c(OCCCN2CCOCC2)ccc2c3n(c(=NC(=O)c4cnc(N)nc4)nc12)CCN3 reads 53.7%.

Still in this assay, the particulars now being: second compound 0.0316 µM; first compound 10 µM; active compounds read low.
In the case of `C=CC(=O)N1CCN(c2nc(=O)n(-c3c(C)ccnc3C(C)C)c3nc(-c4c(O)cccc4F)c(F)cc23)C(C)C1` (stereo unspecified) + COc1c(OCCCN2CCOCC2)ccc2c3n(c(=NC(=O)c4cnc(N)nc4)nc12)CCN3, the viability, T/C is 92.5%.
For `CC(Cn1ccc(-c2ccc(C#N)c(Cl)c2)n1)NC(=O)c1cc(C(C)O)[nH]n1` (stereo unspecified) + COc1c(OCCCN2CCOCC2)ccc2c3n(c(=NC(=O)c4cnc(N)nc4)nc12)CCN3, the viability, T/C was 95.3%.
Consider `Cn1nccc1Nc1nccc(-c2ccn(C(CO)c3ccc(Cl)c(F)c3)c(=O)c2)n1` (stereo unspecified) + COc1c(OCCCN2CCOCC2)ccc2c3n(c(=NC(=O)c4cnc(N)nc4)nc12)CCN3, for which the viability, T/C was 54.3%.

Staying with this assay, now noted: second compound 0.1 µM; first compound 0.0316 µM; active compounds read low.
In the case of `C=CC(=O)N1CCN(c2nc(=O)n(-c3c(C)ccnc3C(C)C)c3nc(-c4c(O)cccc4F)c(F)cc23)C(C)C1` (stereo unspecified) + COc1c(OCCCN2CCOCC2)ccc2c3n(c(=NC(=O)c4cnc(N)nc4)nc12)CCN3, the viability, T/C is 101%.
For `CC(Cn1ccc(-c2ccc(C#N)c(Cl)c2)n1)NC(=O)c1cc(C(C)O)[nH]n1` (stereo unspecified) + COc1c(OCCCN2CCOCC2)ccc2c3n(c(=NC(=O)c4cnc(N)nc4)nc12)CCN3, the viability, T/C is 83.7%.
On the same count and under the same terms, for `Cn1nccc1Nc1nccc(-c2ccn(C(CO)c3ccc(Cl)c(F)c3)c(=O)c2)n1` (stereo unspecified) + COc1c(OCCCN2CCOCC2)ccc2c3n(c(=NC(=O)c4cnc(N)nc4)nc12)CCN3 the value was 84.9%.

The assay is the same for the next values; noted with them: second compound 0.1 µM; first compound 0.1 µM; active compounds read low.
Regarding `C=CC(=O)N1CCN(c2nc(=O)n(-c3c(C)ccnc3C(C)C)c3nc(-c4c(O)cccc4F)c(F)cc23)C(C)C1` (stereo unspecified) + COc1c(OCCCN2CCOCC2)ccc2c3n(c(=NC(=O)c4cnc(N)nc4)nc12)CCN3, the viability, T/C was 73.4%.
In the case of `CC(Cn1ccc(-c2ccc(C#N)c(Cl)c2)n1)NC(=O)c1cc(C(C)O)[nH]n1` (stereo unspecified) + COc1c(OCCCN2CCOCC2)ccc2c3n(c(=NC(=O)c4cnc(N)nc4)nc12)CCN3, the viability, T/C is 74.1%.
In the case of `Cn1nccc1Nc1nccc(-c2ccn(C(CO)c3ccc(Cl)c(F)c3)c(=O)c2)n1` (stereo unspecified) + COc1c(OCCCN2CCOCC2)ccc2c3n(c(=NC(=O)c4cnc(N)nc4)nc12)CCN3, the viability, T/C was 72%.

The assay is the same for the next values; noted with them: second compound 0.1 µM; first compound 0.316 µM; active compounds read low.
In the case of `C=CC(=O)N1CCN(c2nc(=O)n(-c3c(C)ccnc3C(C)C)c3nc(-c4c(O)cccc4F)c(F)cc23)C(C)C1` (stereo unspecified) + COc1c(OCCCN2CCOCC2)ccc2c3n(c(=NC(=O)c4cnc(N)nc4)nc12)CCN3, the viability, T/C is 88%.
Regarding `CC(Cn1ccc(-c2ccc(C#N)c(Cl)c2)n1)NC(=O)c1cc(C(C)O)[nH]n1` (stereo unspecified) + COc1c(OCCCN2CCOCC2)ccc2c3n(c(=NC(=O)c4cnc(N)nc4)nc12)CCN3, the viability, T/C is 70.4%.
Still for that read-out and setting: the result for `Cn1nccc1Nc1nccc(-c2ccn(C(CO)c3ccc(Cl)c(F)c3)c(=O)c2)n1` (stereo unspecified) + COc1c(OCCCN2CCOCC2)ccc2c3n(c(=NC(=O)c4cnc(N)nc4)nc12)CCN3 reads 58.4%.

Still in this assay, the particulars now being: second compound 0.1 µM; first compound 1 µM; active compounds read low.
Take `C=CC(=O)N1CCN(c2nc(=O)n(-c3c(C)ccnc3C(C)C)c3nc(-c4c(O)cccc4F)c(F)cc23)C(C)C1` (stereo unspecified) + COc1c(OCCCN2CCOCC2)ccc2c3n(c(=NC(=O)c4cnc(N)nc4)nc12)CCN3: the viability, T/C is 58.9%.
The same measure, in the same setting: for `CC(Cn1ccc(-c2ccc(C#N)c(Cl)c2)n1)NC(=O)c1cc(C(C)O)[nH]n1` (stereo unspecified) + COc1c(OCCCN2CCOCC2)ccc2c3n(c(=NC(=O)c4cnc(N)nc4)nc12)CCN3 the value was 79%.
Regarding `Cn1nccc1Nc1nccc(-c2ccn(C(CO)c3ccc(Cl)c(F)c3)c(=O)c2)n1` (stereo unspecified) + COc1c(OCCCN2CCOCC2)ccc2c3n(c(=NC(=O)c4cnc(N)nc4)nc12)CCN3, the viability, T/C was 46.2%.

Still in this assay, the particulars now being: second compound 0.1 µM; first compound 3.16 µM; active compounds read low.
Consider `C=CC(=O)N1CCN(c2nc(=O)n(-c3c(C)ccnc3C(C)C)c3nc(-c4c(O)cccc4F)c(F)cc23)C(C)C1` (stereo unspecified) + COc1c(OCCCN2CCOCC2)ccc2c3n(c(=NC(=O)c4cnc(N)nc4)nc12)CCN3, for which the viability, T/C was 67.6%.
As to `CC(Cn1ccc(-c2ccc(C#N)c(Cl)c2)n1)NC(=O)c1cc(C(C)O)[nH]n1` (stereo unspecified) + COc1c(OCCCN2CCOCC2)ccc2c3n(c(=NC(=O)c4cnc(N)nc4)nc12)CCN3, the viability, T/C is 55.1%.
The same measure, in the same setting: for `Cn1nccc1Nc1nccc(-c2ccn(C(CO)c3ccc(Cl)c(F)c3)c(=O)c2)n1` (stereo unspecified) + COc1c(OCCCN2CCOCC2)ccc2c3n(c(=NC(=O)c4cnc(N)nc4)nc12)CCN3 the value was 40.3%.

The assay is the same for the next values; noted with them: second compound 0.1 µM; first compound 10 µM; active compounds read low.
In the case of `C=CC(=O)N1CCN(c2nc(=O)n(-c3c(C)ccnc3C(C)C)c3nc(-c4c(O)cccc4F)c(F)cc23)C(C)C1` (stereo unspecified) + COc1c(OCCCN2CCOCC2)ccc2c3n(c(=NC(=O)c4cnc(N)nc4)nc12)CCN3, the viability, T/C was 82%.
On the same count and under the same terms, for `CC(Cn1ccc(-c2ccc(C#N)c(Cl)c2)n1)NC(=O)c1cc(C(C)O)[nH]n1` (stereo unspecified) + COc1c(OCCCN2CCOCC2)ccc2c3n(c(=NC(=O)c4cnc(N)nc4)nc12)CCN3 the value was 42.4%; for `Cn1nccc1Nc1nccc(-c2ccn(C(CO)c3ccc(Cl)c(F)c3)c(=O)c2)n1` (stereo unspecified) + COc1c(OCCCN2CCOCC2)ccc2c3n(c(=NC(=O)c4cnc(N)nc4)nc12)CCN3, 24.4%.

Staying with this assay, now noted: second compound 0.316 µM; first compound 0.0316 µM; active compounds read low.
On to `C=CC(=O)N1CCN(c2nc(=O)n(-c3c(C)ccnc3C(C)C)c3nc(-c4c(O)cccc4F)c(F)cc23)C(C)C1` (stereo unspecified) + COc1c(OCCCN2CCOCC2)ccc2c3n(c(=NC(=O)c4cnc(N)nc4)nc12)CCN3, for which the viability, T/C was 46.3%.
Take `CC(Cn1ccc(-c2ccc(C#N)c(Cl)c2)n1)NC(=O)c1cc(C(C)O)[nH]n1` (stereo unspecified) + COc1c(OCCCN2CCOCC2)ccc2c3n(c(=NC(=O)c4cnc(N)nc4)nc12)CCN3: the viability, T/C is 30.9%.
On the same count and under the same terms, the result for `Cn1nccc1Nc1nccc(-c2ccn(C(CO)c3ccc(Cl)c(F)c3)c(=O)c2)n1` (stereo unspecified) + COc1c(OCCCN2CCOCC2)ccc2c3n(c(=NC(=O)c4cnc(N)nc4)nc12)CCN3 reads 20.4%.

Still in this assay, the particulars now being: second compound 0.316 µM; first compound 0.1 µM; active compounds read low.
As for `C=CC(=O)N1CCN(c2nc(=O)n(-c3c(C)ccnc3C(C)C)c3nc(-c4c(O)cccc4F)c(F)cc23)C(C)C1` (stereo unspecified) + COc1c(OCCCN2CCOCC2)ccc2c3n(c(=NC(=O)c4cnc(N)nc4)nc12)CCN3, the viability, T/C is 39.4%.

The record behind these values is PubChem BioAssay AID1963984 (Molecular Pharmacology Branch, DTP, NCI, 2024).
